Data reported in patent publication US8916542B2, “Chitosan derivatives, compositions and related methods of use” (Synedgen, Inc., priority 2008, dated 2014).
Where two headings read alike, the source gives them in different places.

Legend:
[1] = system: Pseudomonas aeruginosa, PA01; test: MIC of antibiotics with added chitosan-arginine (live/dead checkerboard); assay type: cell-based; details: for factor of decrease of MIC: addition of 4 μg/ml chitosan-arginine
Protocol: The assay was conducted as follows. In each case, the minimum inhibitory concentration (MIC) in μg/ml was determined for the antibiotic alone against Pseudomonas aeruginosa.

MMRSA = test: Sensitization summary: MMRSA to Mupirocin; assay type: cell-based, Staphylococcus aureus; details: Mupirocin resistance breakpoint 8 μg/mL
Protocol: (§1) By definition, resistance is defined by a “resistance breakpoint” above which a bacterium is considered resistant (and is related to side effects and toxicity).
(§2) The plate was allowed to sit for 24 hours, before being centrifuged at 4000 RPM for 10 minutes, and resuspended in an appropriate enriched growth media (LB or Todd Hewitt Broth). The optical density of the plate was read over the course of 24 hours at 37° C. The optical density readings were used to compute a time to an arbitrary threshold of 0.25, which is correlated using a growth curve for this MMRSA, to virtual colony forming (vCFU) counts.

[2] = system: Mupirocin and Methicilin resistant Staphylcoccus aureus (MMRSA, 2-4C strain); test: Checkerboard time course assay (vCFU) in water; assay type: cell-based, Staphylococcus aureus
Protocol: as §2

[3] = system: MRSA strain MW-2 (ATCC BAA-1707); test: Chitosan-arginine/Oxacillin checkerboard growth inhibition assay; assay type: cell-based, Staphylococcus aureus; details: chitosan-arginine 1 μg/mL alone or Oxacillin 0.78 μg/mL alone
Protocol: Approximately 10^5 cells was added to each of the wells. The optical density of the plate was read over the course of 24 hours at 37° C.

MRSA = test: Sensitization summary: MRSA to Oxacillin; assay type: cell-based, Staphylococcus aureus
Protocol: as §1
(§3) Approximately 10^5 cells were added to each of the wells. […] Optical density readings of the plate were taken, and averaged to determine inhibited samples Inhibition is defined by the final optical density (OD) being less than or equal to ½ the control OD.

[4] = system: MRSA strain MW-2 (ATCC BAA-1707); test: Checkerboard vCFU assay chitosan-arginine and Oxacillin in PBS; assay type: cell-based, Staphylococcus aureus; details: alone
Protocol: Approximately 10^6 cells/mL were added to each well. Incubation occurred at ambient temperature for 20 h, then bacteria were centrifuged and resuspended in an appropriate growth media. The optical density (OD) was read over the course of 18 h at 37° C. The time (in seconds) to an arbitrary threshold OD of 0.15 was used with reference to a growth curve, to calculate the initial bacterial concentration of bacteria (vCFU).

[5] = system: MRSA strain MW-2 (ATCC BAA-1707); test: Standard checkerboard assay in Mueller Hinton media, chitosan-arginine and Oxacillin; assay type: cell-based; details: Staphylococcus aureus
Protocol: Bacteria were incubated at 37° C. for the standard 20 hours. MRSA MIC values were obtained by OD595 (optical density). The entire experiment was repeated three times.

[6] = system: P. aeuriginosa strain PA01 (ATCC BAA-47); test: Checkerboard assay chitosan-arginine and Tobramycin; assay type: cell-based; details: Pseudomonas aeruginosa, ATCCBAA47, read-out: Tobramycin (MIC), alone; determined alongside each C/A lot
Protocol: Bacteria were incubated at 37° C. for the standard 20 hours.
P. aeuriginosa produces the fluorescent pigment pyocyanin, which can be correlated with bacterial growth.

[7] = system: VRE (Vancomycin resistant Enterococcus); test: Sensitization summary: VRE to Vancomycin; assay type: cell-based, Enterococcus faecium; details: for Antibiotic concentration (MIC) in presence of chitosan-arginine: 24 hour treatment
From the text: as §1

K. pneumoniae = test: Sensitization summary: K. pneumoniae to Gentamicin; assay type: cell-based, Klebsiella pneumoniae
Protocol: as §1, §3

A. baumannii = test: Sensitization summary: A. baumannii to Gentamicin; assay type: cell-based, Acinetobacter baumannii
From the text: as §1

[8] = 0 μg/ml chitosan-arginine added (antibiotic alone)
[9] = 0.5 μg/ml chitosan-arginine added
[10] = 1 μg/ml chitosan-arginine added
[11] = 2 μg/ml chitosan-arginine added
[12] = 4 μg/ml chitosan-arginine added, * = lowest value measured
[13] = with chitosan-arginine 0.125 μg/mL, 24 hour treatment

Compound | MIC of antibiotic [1, 8] | MIC of antibiotic [1, 9] | MIC of antibiotic [1, 10] | MIC of antibiotic [1, 11] | factor of decrease of MIC [1] | MIC of antibiotic [1, 12] | other results
O=C(O)c1cn(C2CC2)c2cc(N3CCNCC3)c(F)cc2c1=O [Ciprofloxacin] | 2 µg/mL | 1 µg/mL | 1 µg/mL | .5 µg/mL | ≥ 80 |  | 
C/C(=C\C(=O)OCCCCCCCCC(=O)O)C[C@@H]1OC[C@H](C[C@@H]2O[C@H]2[C@@H](C)[C@H](C)O)[C@@H](O)[C@H]1O [Mupirocin] |  |  |  |  |  |  | MIC of antibiotic alone against resistant bacteria (MMRSA): MMRSA (>64) μg/mL; effect of mupirocin alone on MMRSA ([2]; 1 μg/mL): completely ineffective; antibacterial effectiveness of Mupirocin alone ([2]; doses below 64 to 128 μg/mL): ineffective; mupirocin concentration at which MMRSA is sensitive ([2]; mupirocin alone, 24 hours in water): 128 µg/mL; lowest Mupirocin dose to which MMRSA is sensitized ([2]; with 4 μg/mL chitosan-arginine): 8 µg/mL
Cc1onc(-c2ccccc2)c1C(=O)N[C@@H]1C(=O)N2[C@@H]1SC(C)(C)[C@@H]2C(=O)O [Oxacillin] |  |  |  |  |  |  | effect on growth of the bacteria, agent alone [3]: Neither antimicrobial alone had a significant an effect; MIC of antibiotic alone against resistant bacteria (MRSA; MRSA, Oxacillin resistance breakpoint 4 μg/mL): MRSA (>25) μg/mL; Antibiotic concentration (MIC) in presence of chitosan-arginine (MRSA; with chitosan-arginine 4 μg/mL, 24 hour treatment): 0.2 µg/mL; bactericidal concentration [4]: > 6.25 µg/mL; MIC ([5]; read-out: MIC of Oxa alone): 4 µg/mL; MIC ([5]; read-out: MIC of Oxa with C/A): 1 µg/mL
CO[C@H]1/C=C/O[C@@]2(C)Oc3c(C)c(O)c4c(O)c(c(/C=N/N5CCN(C)CC5)c(O)c4c3C2=O)NC(=O)/C(C)=C\C=C\[C@H](C)[C@H](O)[C@@H](C)[C@@H](O)[C@@H](C)[C@H](OC(C)=O)[C@@H]1C [Rifampicin] | 8 µg/mL | 4 µg/mL | 2 µg/mL | 1 µg/mL | 16 | 0.5 µg/mL | 
[Ag] [Silver] | 0.042 µg/mL | 0.021 µg/mL | 0.021 µg/mL | 0.005 µg/mL | ≥ 40 | ≤ 0.001* μg/ml | 
NC[C@H]1O[C@H](O[C@H]2[C@H](O)[C@@H](O[C@H]3O[C@H](CO)[C@@H](O)[C@H](N)[C@H]3O)[C@H](N)C[C@@H]2N)[C@H](N)C[C@@H]1O [Tobramycin] |  |  |  |  |  |  | MIC [6]: 0.5 µg/mL
CN[C@H](CC(C)C)C(=O)N[C@H]1C(=O)N[C@@H](CC(N)=O)C(=O)N[C@H]2C(=O)N[C@H]3C(=O)N[C@H](C(=O)N[C@H](C(=O)O)c4cc(O)cc(O)c4-c4cc3ccc4O)[C@H](O)c3ccc(c(Cl)c3)Oc3cc2cc(c3O[C@@H]2O[C@H](CO)[C@@H](O)[C@H](O)[C@H]2O[C@H]2C[C@](C)(N)[C@H](O)[C@H](C)O2)Oc2ccc(cc2Cl)[C@H]1O [Vancomycin] |  |  |  |  |  |  | MIC of antibiotic alone against resistant bacteria ([7]; VRE, Vancomycin resistance breakpoint 32 μg/mL): VRE (>32) μg/mL; Antibiotic concentration (MIC) in presence of chitosan-arginine ([7]; with chitosan-arginine 2 μg/mL): 2 µg/mL; Antibiotic concentration (MIC) in presence of chitosan-arginine ([7]; with chitosan-arginine 4 μg/mL): 12.5 µg/mL
Gentamicin |  |  |  |  |  |  | MIC of antibiotic alone against resistant bacteria (K. pneumoniae; K. pneumoniae, Gentamicin resistance breakpoint 64 μg/mL): K. pneumoniae (64) μg/mL; Antibiotic concentration (MIC) in presence of chitosan-arginine (K. pneumoniae; [13]): 16 µg/mL; MIC of antibiotic alone against resistant bacteria (A. baumannii; A. baumannii, Gentamicin resistance breakpoint 64 μg/mL): A. baumannii (64) μg/mL; Antibiotic concentration (MIC) in presence of chitosan-arginine (A. baumannii; [13]): 16 µg/mL
Neomycin | 8 µg/mL | 4 µg/mL | 2 µg/mL | 1 µg/mL | 16 | 0.5 µg/mL | 
